These results are taken from US7612200B2, “Inhibitors of protein kinases” (Locus Pharmaceuticals, Inc., priority 2004, dated 2009).

Molecules are shown by their SMILES.

What all share (type): biochemical
Assay [1] deals with c-RAF (Homo sapiens, UniProt P04049). Kind of assay: c-RAF Kinase Activity. The protocol:
(§1) c-RAF Kinase Activity: In a final reaction volume of 25 μl, c-RAF (h) (5-10 mU) is incubated with 25 mM Tris pH 7.5, 0.02 mM EGTA, 0.66 mg/ml myelin basic protein, 10 mM MgAcetate, and [γ-^33P-ATP] (specific activity approx. 500 cpm/pmol, concentration as required). The reaction is initiated by the addition of the MgATP mix. After incubation for 40 minutes at room temperature, the reaction is stopped by the addition of 5 μl of a 3% phosphoric acid solution. 10 μl of the reaction is then spotted onto a P30 filtermat and washed three times for 5 minutes in 75 mM phosphoric acid and once in methanol prior to drying and scintillation counting.

Assay [2] addresses p38β (Homo sapiens, UniProt Q15759). Kind of assay: SAPK2b Kinase Activity (p38β). The conditions noted are these: compound at 2 μm. As for the experimental part: as §1, with “SAPK2b” for “c-RAF”, “0.33” for “0.66”, “MgAcetate” for “MgAcetate,”, “the” for “then”
The target of assay [3] is p38γ (Homo sapiens, UniProt P53778). Kind of assay: SAPK3 Kinase Activity (p38γ). As for the experimental part: (§2) SAPK3 Kinase Activity: In a final reaction volume of 25 μl, SAPK3 (h) (5-10 mU) is incubated with 25 mM Tris pH 7.5, 0.02 mM EGTA, 0.33 mg/ml myelin basic protein, 10 mM MgAcetate and [γ-^33P-ATP] (specific activity approx. 500 cpm/®mol, concentration as required). The reaction is initiated by the addition of the MgATP mix. After incubation for 40 minutes at room temperature, the reaction is stopped by the addition of 5 μL of a 3% phosphoric acid solution. 10 μL of the reaction is the spotted onto a P30 filtermat and washed three times for 5 minutes in 75 mM phosphoric acid and once in methanol prior to drying and scintillation counting.
Chain of p38γ (P53778 whole entry): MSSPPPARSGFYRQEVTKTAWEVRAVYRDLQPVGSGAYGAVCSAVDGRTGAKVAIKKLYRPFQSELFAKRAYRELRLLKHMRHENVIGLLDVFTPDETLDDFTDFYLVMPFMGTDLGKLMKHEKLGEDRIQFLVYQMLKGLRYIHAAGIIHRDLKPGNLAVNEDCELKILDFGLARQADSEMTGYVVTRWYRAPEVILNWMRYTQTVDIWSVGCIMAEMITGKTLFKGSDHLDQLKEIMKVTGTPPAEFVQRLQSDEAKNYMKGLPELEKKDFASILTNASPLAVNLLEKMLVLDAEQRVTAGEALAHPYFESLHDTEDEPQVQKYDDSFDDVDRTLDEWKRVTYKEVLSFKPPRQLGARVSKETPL

Assay [4] concerns the target p38δ (Homo sapiens, UniProt O15264). Kind of assay: SAPK4 Kinase Activity (p38δ). As for the experimental part:
as §2, with “SAPK4 Kinase” for “SAPK3 Kinase”, “μl, SAPK4” for “μl, SAPK3”, “500 cpm/pmol,” for “500 cpm/®mol,”, “5 μl” for “5 μL”

The target in assay [5] is Tie2 (Homo sapiens, UniProt Q02763). Kind of assay: Tie2 Kinase Activity. The protocol:
Tie2 Kinase Activity: In a final reaction volume of 25 μl, Tie2 (h) (5-10 mU) is incubated with 8 mM MOPS pH 7.0, 0.2 mM EDTA, 0.5 mM MnCl2, 0.1 mg/ml poly(Glu, Tyr) 4:1, 10 mM MgAcetate and [γ-^33P-ATP] (specific activity approx. 500 cpm/pmol, concentration as required). The reaction is initiated by the addition of the MgATP mix. After incubation for 40 minutes at room temperature, the reaction is stopped by the addition of 5 μl of a 3% phosphoric acid solution. 10 μl of the reaction is then spotted onto a Filtermat A and washed three times for 5 minutes in 75 mM phosphoric acid and once in methanol prior to drying and scintillation counting.

In assay [6] the target is DDR2 (Homo sapiens, UniProt Q16832). Kind of assay: Protein kinase inhibition, DDR2. Particulars: Rate (μM) 2, read-out: % Control.
Assay [7] concerns the target EphA2 (Homo sapiens, UniProt P29317). Description: Protein kinase inhibition, EphA2. Particulars: Rate (μM) 2, read-out: % Control.
The target in assay [8] is EphA3 (Homo sapiens, UniProt P29320). Description: Protein kinase inhibition, EphA3. The conditions noted are these: Rate (μM) 2, read-out: % Control.
Assay [9] addresses EphA5 (Homo sapiens, UniProt P54756). Description: Protein kinase inhibition, EphA5. The conditions noted are these: Rate (μM) 2.
The target of assay [10] is EphA7 (Homo sapiens, UniProt Q15375). Kind of assay: Protein kinase inhibition, EphA7. The conditions noted are these: Rate (μM) 2, read-out: % Control.
Assay [11] deals with FGFR2 (Homo sapiens, UniProt P21802). Kind of assay: Protein kinase inhibition, FGFR2. Particulars: Rate (μM) 2, read-out: % Control.
In assay [12] the target is Flt1 (Homo sapiens, UniProt P17948). Kind of assay: Protein kinase inhibition, Flt1. The conditions noted are these: Rate (μM) 2, read-out: % Control.
For assay [13], the target named is Hck (Homo sapiens, UniProt P08631). Description: Protein kinase inhibition, Hck. Particulars: Rate (μM) 2, read-out: % Control.
Chain of Hck (P08631 whole entry): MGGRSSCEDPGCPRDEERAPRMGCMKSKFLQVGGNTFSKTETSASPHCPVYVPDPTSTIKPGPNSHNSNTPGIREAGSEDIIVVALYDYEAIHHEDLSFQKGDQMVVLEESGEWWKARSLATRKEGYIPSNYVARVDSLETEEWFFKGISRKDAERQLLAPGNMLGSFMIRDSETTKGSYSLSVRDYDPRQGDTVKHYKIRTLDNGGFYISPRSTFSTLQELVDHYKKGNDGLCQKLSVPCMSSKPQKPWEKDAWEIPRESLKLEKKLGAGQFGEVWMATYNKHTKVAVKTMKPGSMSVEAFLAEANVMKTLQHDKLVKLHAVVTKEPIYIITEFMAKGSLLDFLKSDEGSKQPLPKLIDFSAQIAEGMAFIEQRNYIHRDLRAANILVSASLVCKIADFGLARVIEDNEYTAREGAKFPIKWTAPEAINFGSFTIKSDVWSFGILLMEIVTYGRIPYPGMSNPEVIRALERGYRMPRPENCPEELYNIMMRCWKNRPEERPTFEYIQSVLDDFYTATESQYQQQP
Assay [14] has as its target MINK (Homo sapiens, UniProt Q8N4C8). Description: Protein kinase inhibition, MINK. Particulars: Rate (μM) 2, read-out: % Control.
Assay [15] has as its target P70S6K (Homo sapiens, UniProt P23443). Description: Protein kinase inhibition, P70S6K. Particulars: Rate (μM) 2, read-out: % Control.
Assay [16] addresses Pyk2 (Homo sapiens, UniProt Q14289). Description: Protein kinase inhibition, Pyk2. The conditions noted are these: Rate (μM) 2, read-out: % Control.
For assay [17], the target named is ROCKI (Homo sapiens, UniProt Q13464). Description: Protein kinase inhibition, ROCKI (human). Particulars: Rate (μM) 2, read-out: % Control.
Chain of ROCKI (Homo sapiens, UniProt Q13464) (Q13464 whole entry): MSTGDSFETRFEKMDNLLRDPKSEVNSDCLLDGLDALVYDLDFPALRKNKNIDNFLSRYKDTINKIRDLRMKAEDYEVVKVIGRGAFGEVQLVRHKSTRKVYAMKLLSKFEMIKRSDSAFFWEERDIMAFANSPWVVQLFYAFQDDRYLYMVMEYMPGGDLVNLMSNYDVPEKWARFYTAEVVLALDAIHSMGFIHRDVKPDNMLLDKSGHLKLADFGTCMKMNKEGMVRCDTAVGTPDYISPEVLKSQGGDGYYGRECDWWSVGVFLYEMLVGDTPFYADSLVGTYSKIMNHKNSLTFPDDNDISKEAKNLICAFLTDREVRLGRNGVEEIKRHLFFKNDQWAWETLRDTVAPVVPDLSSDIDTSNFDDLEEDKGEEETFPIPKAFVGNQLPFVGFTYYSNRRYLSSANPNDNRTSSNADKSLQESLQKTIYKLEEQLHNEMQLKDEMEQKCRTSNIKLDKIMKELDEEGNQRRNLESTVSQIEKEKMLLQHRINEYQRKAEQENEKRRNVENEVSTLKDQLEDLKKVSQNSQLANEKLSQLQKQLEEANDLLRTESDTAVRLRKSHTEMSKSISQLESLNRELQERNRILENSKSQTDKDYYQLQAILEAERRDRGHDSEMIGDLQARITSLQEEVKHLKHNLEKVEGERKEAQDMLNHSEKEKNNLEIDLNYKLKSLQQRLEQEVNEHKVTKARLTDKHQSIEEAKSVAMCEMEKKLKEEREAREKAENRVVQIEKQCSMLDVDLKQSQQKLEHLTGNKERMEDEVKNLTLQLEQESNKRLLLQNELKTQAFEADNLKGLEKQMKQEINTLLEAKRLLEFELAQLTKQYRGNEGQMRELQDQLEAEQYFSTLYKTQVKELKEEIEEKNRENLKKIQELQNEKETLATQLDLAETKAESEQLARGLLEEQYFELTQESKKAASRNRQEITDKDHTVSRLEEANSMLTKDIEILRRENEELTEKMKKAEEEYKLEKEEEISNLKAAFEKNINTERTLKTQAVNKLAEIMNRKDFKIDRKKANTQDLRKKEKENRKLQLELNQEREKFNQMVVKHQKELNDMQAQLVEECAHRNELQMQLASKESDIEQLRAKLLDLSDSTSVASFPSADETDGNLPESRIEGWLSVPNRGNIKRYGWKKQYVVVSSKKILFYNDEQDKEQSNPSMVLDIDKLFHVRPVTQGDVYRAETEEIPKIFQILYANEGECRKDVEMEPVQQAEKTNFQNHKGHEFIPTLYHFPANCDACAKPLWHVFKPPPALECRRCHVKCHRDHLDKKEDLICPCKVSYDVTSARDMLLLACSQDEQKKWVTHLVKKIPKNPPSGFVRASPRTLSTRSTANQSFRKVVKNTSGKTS
Assay [18] relates to ROCKI. Description: Protein kinase inhibition, ROCKI (rat). Particulars: Rate (μM) 2.
The target in assay [19] is TAK1 (Homo sapiens, UniProt O43318). Description: Protein kinase inhibition, TAK1. The conditions noted are these: Rate (μM) 2, read-out: % Control.
For assay [20], the target named is TrkA (Homo sapiens, UniProt P04629). Description: Protein kinase inhibition, TrkA. Particulars: Rate (μM) 2, read-out: % Control.

Chain of p38δ (O15264 whole entry): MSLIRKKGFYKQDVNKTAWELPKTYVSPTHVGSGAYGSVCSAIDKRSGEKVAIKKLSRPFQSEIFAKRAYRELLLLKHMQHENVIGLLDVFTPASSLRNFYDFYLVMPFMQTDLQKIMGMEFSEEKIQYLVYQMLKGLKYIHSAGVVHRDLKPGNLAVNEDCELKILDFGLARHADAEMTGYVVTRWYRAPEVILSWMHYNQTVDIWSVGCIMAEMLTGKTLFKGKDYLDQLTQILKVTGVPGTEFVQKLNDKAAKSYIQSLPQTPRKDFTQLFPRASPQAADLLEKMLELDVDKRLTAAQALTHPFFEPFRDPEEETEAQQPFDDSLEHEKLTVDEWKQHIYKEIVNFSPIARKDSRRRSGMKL
Chain of c-RAF (P04049 whole entry): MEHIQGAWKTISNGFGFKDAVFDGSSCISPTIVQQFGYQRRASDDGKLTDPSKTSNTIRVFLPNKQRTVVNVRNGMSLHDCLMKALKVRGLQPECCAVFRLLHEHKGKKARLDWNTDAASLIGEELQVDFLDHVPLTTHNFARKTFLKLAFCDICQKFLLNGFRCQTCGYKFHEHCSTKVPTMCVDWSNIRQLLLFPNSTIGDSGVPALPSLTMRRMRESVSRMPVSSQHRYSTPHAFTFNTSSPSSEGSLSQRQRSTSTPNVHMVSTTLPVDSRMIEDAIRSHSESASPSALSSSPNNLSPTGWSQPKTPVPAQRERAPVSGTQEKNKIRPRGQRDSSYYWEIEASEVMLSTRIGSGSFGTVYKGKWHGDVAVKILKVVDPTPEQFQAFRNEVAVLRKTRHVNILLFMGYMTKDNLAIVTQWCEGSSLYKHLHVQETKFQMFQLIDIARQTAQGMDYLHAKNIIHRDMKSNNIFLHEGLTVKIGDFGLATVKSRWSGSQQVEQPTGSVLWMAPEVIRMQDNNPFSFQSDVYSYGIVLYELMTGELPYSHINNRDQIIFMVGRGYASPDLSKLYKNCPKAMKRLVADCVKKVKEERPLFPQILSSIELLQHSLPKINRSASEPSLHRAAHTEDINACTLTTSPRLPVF
Chain of Tie2 (Q02763 23-1124): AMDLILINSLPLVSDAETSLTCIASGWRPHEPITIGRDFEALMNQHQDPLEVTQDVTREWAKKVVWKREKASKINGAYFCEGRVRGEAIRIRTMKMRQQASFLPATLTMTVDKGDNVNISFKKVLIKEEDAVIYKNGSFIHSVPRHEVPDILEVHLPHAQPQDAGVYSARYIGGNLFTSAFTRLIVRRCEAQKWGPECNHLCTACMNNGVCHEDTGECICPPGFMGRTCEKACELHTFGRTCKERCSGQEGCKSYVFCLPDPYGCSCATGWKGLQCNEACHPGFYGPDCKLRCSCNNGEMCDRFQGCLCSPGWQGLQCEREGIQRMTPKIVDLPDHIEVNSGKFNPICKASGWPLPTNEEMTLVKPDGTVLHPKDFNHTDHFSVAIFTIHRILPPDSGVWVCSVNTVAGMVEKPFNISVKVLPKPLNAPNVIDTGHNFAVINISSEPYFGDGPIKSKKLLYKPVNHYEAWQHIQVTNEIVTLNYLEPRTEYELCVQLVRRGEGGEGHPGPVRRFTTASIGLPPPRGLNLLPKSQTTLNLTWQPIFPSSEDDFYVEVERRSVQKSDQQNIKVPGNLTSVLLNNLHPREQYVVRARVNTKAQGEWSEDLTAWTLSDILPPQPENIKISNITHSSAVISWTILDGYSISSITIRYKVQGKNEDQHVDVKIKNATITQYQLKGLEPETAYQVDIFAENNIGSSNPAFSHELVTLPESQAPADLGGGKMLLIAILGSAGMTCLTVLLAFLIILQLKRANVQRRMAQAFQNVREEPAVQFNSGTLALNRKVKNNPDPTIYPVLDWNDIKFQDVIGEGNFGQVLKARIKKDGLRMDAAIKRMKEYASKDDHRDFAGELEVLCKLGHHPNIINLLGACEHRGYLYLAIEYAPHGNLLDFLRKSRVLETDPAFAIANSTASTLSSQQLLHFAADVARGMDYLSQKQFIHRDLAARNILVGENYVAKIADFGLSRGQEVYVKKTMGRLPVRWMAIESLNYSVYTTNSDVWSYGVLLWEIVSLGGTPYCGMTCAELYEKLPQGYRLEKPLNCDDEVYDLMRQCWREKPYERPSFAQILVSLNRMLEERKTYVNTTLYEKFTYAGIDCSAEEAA
Chain of P70S6K (P23443 whole entry): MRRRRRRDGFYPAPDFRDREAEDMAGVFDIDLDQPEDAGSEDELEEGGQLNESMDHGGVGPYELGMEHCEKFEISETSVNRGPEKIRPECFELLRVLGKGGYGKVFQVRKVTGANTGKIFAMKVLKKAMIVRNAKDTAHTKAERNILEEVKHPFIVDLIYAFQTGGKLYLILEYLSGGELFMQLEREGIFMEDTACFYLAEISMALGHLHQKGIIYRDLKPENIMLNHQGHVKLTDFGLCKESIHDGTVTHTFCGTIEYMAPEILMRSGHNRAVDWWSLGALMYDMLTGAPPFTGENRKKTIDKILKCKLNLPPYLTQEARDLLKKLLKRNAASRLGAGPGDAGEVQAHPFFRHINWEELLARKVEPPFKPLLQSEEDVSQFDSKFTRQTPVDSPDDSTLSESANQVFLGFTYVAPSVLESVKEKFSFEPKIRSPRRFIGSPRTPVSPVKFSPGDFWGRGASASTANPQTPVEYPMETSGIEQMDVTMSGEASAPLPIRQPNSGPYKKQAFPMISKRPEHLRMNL

Take `CC(C)(C)c1cc(C(=O)N2CCS(=O)(=O)CC2)c(NC(=O)Nc2ccc(Oc3ccncc3)cc2)s1` [Example 3, 1-[5-tert-Butyl-3-(1,1-dioxo-1λ^6-thiomorpholine-4-carbonyl)thiophen-2-yl]-3-[4-(pyridin-4-yloxy)phenyl]urea]: the remaining activity at 2 µM in assay [1] (40 min, cRaf, Human, Rate (μM) 2, read-out: % Control) is 76 to 100%; in [3] (40 min, P38g, Human, Rate (μM) 2, read-out: % Control) it was 76 to 100%; in [4] (40 min, P38d, Human, Rate (μM) 2, read-out: % Control), 76 to 100%; in [5] (40 min, Tie2, Human, Rate (μM) 2, read-out: % Control), 76 to 100%; in assay [6], 76 to 100%; in assay [7], 76 to 100%. The remaining activity at 2 µM in assay [8] lay in the range of 76 to 100%; in assay [10], 76 to 100%; in assay [11] it was 51 to 75%; in assay [12] it was 76 to 100%; in assay [13], 76 to 100%; in [14], 51 to 75%. Further, the remaining activity at 2 µM in assay [15] was in the range of 51 to 75%; in [16], 51 to 75%; in assay [17], 51 to 75%; in assay [19] it was 76 to 100%; in [20], 76 to 100%. In addition, the “% Inhibition at 2 μm” value is 76-100% in assay [1] (c-RAF, compound at 2 μm); 76-100% in assay [2]; 76-100% in [3] (p38γ, compound at 2 μm); 76-100% in [4] (p38δ, compound at 2 μm); 76-100% in assay [5] (Tie2, compound at 2 μm). Besides, the “% Control” value in assay [9] is 76-100%. Also, the “% inhibition” value in [18] is 51-75%.
